Measured values taken from patent US7767716B2, “Acyl hydrazines as kinase inhibitors, in particular for SGK” (Merck Patent GmbH, priority 2005, dated 2010).
Several values for one entry are separate records, joined by “and”; a condition that tells them apart may be missing. Identical values can stand only once.

With `COc1ccc(C(=O)NNC(=O)Cc2cccc(O)c2)c(OC)c1` [compound 29] the melting point was 197 to 198 °C. With `O=C(Cc1cccc(O)c1)NNC(=O)c1cccc(O)c1` [compound 6] the melting point was 224 to 225 °C. `O=C(Cc1cccc(O)c1)NNC(=O)c1ccc(Cl)cc1Cl` [compound 25] showed a melting point of 202 to 203 °C. `O=C(Cc1cccc(O)c1)NNC(=O)c1c(Br)cc(OCc2ccccc2)cc1OCc1ccccc1` [compound 64] showed a melting point of 194 to 195 °C. With `COc1ccc(C(=O)NNC(=O)Cc2cccc(O)c2)c(C)c1` [compound 13] the melting point was 171 to 172 °C. For `O=C(Cc1cccc(O)c1)NNC(=O)c1ccc([N+](=O)[O-])cc1` [compound 56], the melting point was 222 to 223 °C. For `O=C(Cc1cccc(O)c1)NNC(=O)c1cccc([N+](=O)[O-])c1` [compound 20], the melting point was 179 °C. Molecule `COc1cc(O)ccc1C(=O)NNC(=O)Cc1cccc(O)c1` [compound 35] has a melting point of 208 to 209 °C. Molecule `O=C(Cc1cccc(O)c1)NNC(=O)c1c(O)cc(O)cc1Br` [compound 63] has a melting point of 226 to 227 °C. For `O=C(Cc1cccc(O)c1)NNC(=O)c1ccc(F)c(F)c1` [compound 41], the melting point was 164 °C. In the case of `O=C(Cc1cccc(O)c1)NNC(=O)c1ccc(O)c(Cl)c1O` [compound 81], the melting point is reported as 252 to 253 °C. With `O=C(Cc1cccc(O)c1)NNC(=O)c1cccc(C(Cl)Cl)c1` [compound 52] the melting point was 154 to 155 °C. In the case of `O=C(Cc1cccc(O)c1)NNC(=O)c1ccc(Br)cc1` [compound 28], the melting point is reported as 229 °C. Molecule `Cc1cc(OCc2ccccc2)cc(OCc2ccccc2)c1C(=O)NNC(=O)Cc1cccc(O)c1` [compound 58] has a melting point of 165 to 166 °C. `O=C(Cc1cccc(O)c1)NNC(=O)c1ccccc1Cl` [compound 23] gave a melting point of 172 °C. `O=C(Cc1cccc(O)c1)NNC(=O)c1cccc(Br)c1` [compound 33] showed a melting point of 194 to 195 °C. `CCOc1ccc2ccccc2c1C(=O)NNC(=O)Cc1cccc(O)c1` [compound 45] showed a melting point of 148 to 150 °C. Molecule `CCc1cc(O)ccc1C(=O)NNC(=O)Cc1cccc(O)c1` [compound 60, N′-[2-(3-hydroxyphenyl)acetyl]-2-ethyl-4-hydroxybenzohydrazide] has a melting point of 199 to 200 °C. In the case of `O=C(Cc1cccc(O)c1)NNC(=O)c1cccc(Cl)c1` [compound 24], the melting point is reported as 183 to 184 °C. With `O=C(Cc1cccc(O)c1)NNC(=O)c1c(O)cc(O)cc1Cl` [compound 70, N′-[2-(3-hydroxyphenyl)acetyl]-2-chloro-4,6-dihydroxybenzohydrazide] the melting point was 217 °C and 213 to 215 °C. For `COc1cc(C(=O)NNC(=O)Cc2cccc(O)c2)c([N+](=O)[O-])cc1OC` [compound 11], the melting point was 226 to 227 °C. `O=C(Cc1cccc(O)c1)NNC(=O)c1c(O)cc(O)cc1O` [compound 68, N′-[2-(3-hydroxyphenyl)acetyl]-2,4,6-trihydroxybenzohydrazide] gave a melting point of 237 to 238 °C. Work on `Cc1cc(C(=O)NNC(=O)Cc2cccc(O)c2)ccc1O` [compound 75] yielded a melting point of 207 to 208 °C. With `CCc1c(C(=O)NNC(=O)Cc2cccc(O)c2)ccc(O)c1Cl` [compound 84] the melting point was 259 °C. Molecule `O=C(Cc1cccc(O)c1)NNC(=O)c1c(O)cc(O)cc1F` [compound 72] has a melting point of 230 to 232 °C. Work on `CCCCCc1cc(O)cc(O)c1C(=O)NNC(=O)Cc1cccc(O)c1` [compound 83] yielded a melting point of 230 °C. Work on `COc1cc(I)c(C(=O)NNC(=O)Cc2cccc(O)c2)cc1OC` [compound 10] yielded a melting point of 199 to 200 °C. For `N#Cc1cccc(C(=O)NNC(=O)Cc2cccc(O)c2)c1` [compound 39], the melting point was 181.5 to 182.5 °C. In the case of `CC(C)(C)c1cc(C(=O)NNC(=O)Cc2cccc(O)c2)ccc1O` [compound 76], the melting point is reported as 154 to 157 °C. `CCc1ccc(C(=O)NNC(=O)Cc2cccc(O)c2)cc1` [compound 44] showed a melting point of 155 to 156 °C. For `O=C(Cc1cccc(O)c1)NNC(=O)c1ccc(F)cc1` [compound 31], the melting point was 182 to 183 °C. For `O=C(Cc1cccc(O)c1)NNC(=O)c1cccc2ccccc12` [compound 34], the melting point was 210 to 211 °C. Molecule `Cc1ccc(C(=O)NNC(=O)Cc2cccc(O)c2)cc1` [compound 22] has a melting point of 175 to 176 °C. Molecule `COc1cc(O)cc(Cl)c1C(=O)NNC(=O)Cc1cccc(O)c1` [compound 79] has a melting point of 105 to 106 °C. Molecule `O=C(Cc1cccc(O)c1)NNC(=O)c1ccc(O)cc1C(F)(F)F` [compound 71] has a melting point of 210 to 212 °C. Molecule `CC(C)(C)c1ccc(C(=O)NNC(=O)Cc2cccc(O)c2)cc1` [compound 43] has a melting point of 183 to 184 °C. `CCOc1cccc(C(=O)NNC(=O)Cc2cccc(O)c2)c1` [compound 42] gave a melting point of 130 to 132 °C. For `O=C(Cc1cccc(O)c1)NNC(=O)c1ccc(O)cc1Cl` [compound 8], the melting point was 165 to 166 °C. `O=C(Cc1cccc(O)c1)NNC(=O)c1cc([N+](=O)[O-])cc([N+](=O)[O-])c1` showed a melting point of 248 to 249 °C. Molecule `O=C(Cc1cccc(O)c1)NNC(=O)c1ccccc1I` [compound 27] has a melting point of 190 to 191 °C. With `Cc1c(O)ccc(C(=O)NNC(=O)Cc2cccc(O)c2)c1C` [compound 82] the melting point was 251 °C. With `CCCc1cc(O)cc(O)c1C(=O)NNC(=O)Cc1cccc(O)c1` [compound 69] the melting point was 198 to 200 °C. `O=C(Cc1cccc(O)c1)NNC(=O)c1cccc(OCc2ccccc2)c1` [compound 4] showed a melting point of 152 to 153 °C. `N#Cc1cc(C(=O)NNC(=O)Cc2cccc(O)c2)c(O)cc1O` [compound 86] showed a melting point of 258 °C. `O=C(Cc1cccc(O)c1)NNC(=O)c1ccc(O)c(Cl)c1` [compound 77] gave a melting point of 230 to 231 °C. `Cc1cccc(C(=O)NNC(=O)Cc2cccc(O)c2)c1` [compound 18] gave a melting point of 156 to 157 °C. In the case of `O=C(Cc1cccc(O)c1)NNC(=O)c1ccc(CCl)cc1` [compound 54], the melting point is reported as 175 to 176 °C. Molecule `NC(=O)c1cc(C(=O)NNC(=O)Cc2cccc(O)c2)c(O)cc1O` [compound 85] has a melting point of 260 to 261 °C. `Cc1cc(O)cc(O)c1C(=O)NNC(=O)Cc1cccc(O)c1` [compound 57] gave a melting point of 226 to 227 °C. With `O=C(Cc1cccc(O)c1)NNC(=O)c1c(O)cc(O)cc1Br` [compound 73] the melting point was 259 °C. With `COc1ccccc1C(=O)NNC(=O)Cc1cccc(O)c1` [compound 17] the melting point was 181 to 182 °C. Molecule `O=C(Cc1cccc(O)c1)NNC(=O)c1ccc(O)c([N+](=O)[O-])c1` [compound 74, N′-[2-(3-hydroxyphenyl)acetyl]-4-hydroxy-3-nitrobenzohydrazide] has a melting point of 190 to 193 °C. Work on `O=C(Cc1cccc(O)c1)NNC(=O)c1ccccc1F` [compound 21] yielded a melting point of 154 to 155 °C. In the case of `O=C(Cc1cccc(O)c1)NNC(=O)c1cccc(C(F)(F)F)c1` [compound 53], the melting point is reported as 161 to 162 °C. Molecule `O=C(Cc1cccc(O)c1)NNC(=O)c1ccc(O)cc1` [compound 3] has a melting point of 207 to 208 °C. In the case of `O=C(Cc1cccc(O)c1)NNC(=O)c1ccc2ccccc2c1` [compound 32], the melting point is reported as 201 to 202 °C. In the case of `O=C(Cc1cccc(O)c1)NNC(=O)c1ccc(Cl)cc1` [compound 50], the melting point is reported as 223 °C. With `COc1cccc(C(=O)NNC(=O)Cc2cccc(O)c2)c1` [compound 55] the melting point was 138 to 139 °C. Molecule `O=C(Cc1cccc(O)c1)NNC(=O)c1cccc(OC(F)(F)F)c1` [compound 48] has a melting point of 256 to 257 °C. For `COc1cc(OCc2ccccc2)ccc1C(=O)NNC(=O)Cc1cccc(O)c1` [compound 14], the melting point was 193 to 194 °C. Molecule `COc1cc(F)c(C(=O)NNC(=O)Cc2cccc(O)c2)c(F)c1` [compound 12] has a melting point of 198 to 199 °C. For `O=C(Cc1cccc(O)c1)NNC(=O)c1ccccc1` [compound 51], the melting point was 162 to 163 °C. For `O=C(Cc1cccc(O)c1)NNC(=O)c1cc(Cl)c(O)cc1C(F)(F)F` [compound 88], the melting point was 200 to 202 °C. For `O=C(Cc1cccc(O)c1)NNC(=O)c1ccc(SC(F)(F)F)cc1` [compound 46], the melting point was 165 to 166 °C. In the case of `CCc1cc(O)cc(O)c1C(=O)NNC(=O)Cc1cccc(O)c1` [compound 62], the melting point is reported as 251 °C. Work on `Nc1cc(C(=O)NNC(=O)Cc2cccc(O)c2)ccc1O` [compound 78, N′-[2-(3-hydroxyphenyl)acetyl]-3-amino-4-hydroxybenzohydrazide] yielded a melting point of 264 to 265 °C. `O=C(Cc1cccc(O)c1)NNC(=O)c1cc(Cl)ccc1Br` [compound 15] showed a melting point of 212 to 213 °C. `Cc1cc(C(=O)NNC(=O)Cc2cccc(O)c2)c(O)cc1O` [compound 87] showed a melting point of 240 °C. With `O=C(Cc1cccc(O)c1)NNC(=O)c1ccccc1C(F)(F)F` [compound 47] the melting point was 195 to 196 °C. For `CCc1cc(OCc2ccccc2)ccc1C(=O)NNC(=O)Cc1cccc(O)c1` [compound 59, N′-[2-(3-hydroxyphenyl)acetyl]-4-benzyloxy-2-ethylbenzohydrazide], the melting point was 190 to 191 °C. `O=C(Cc1cccc(O)c1)NNC(=O)c1cc(Cl)c(O)cc1O` [compound 80] gave a melting point of 269 to 270 °C. In the case of `O=C(Cc1cccc(O)c1)NNC(=O)c1cccc(Cl)c1Cl` [compound 40], the melting point is reported as 220 to 221 °C. For `O=C(Cc1cccc(O)c1)NNC(=O)c1ccccc1O` [compound 5], the melting point was 214 to 215 °C. Work on `O=C(Cc1cccc(O)c1)NNC(=O)c1cccc(F)c1` [compound 37] yielded a melting point of 176 to 177 °C. `COC(=O)c1ccc(C(=O)NNC(=O)Cc2cccc(O)c2)cc1` [compound 19] gave a melting point of 201 to 202 °C. `Cc1ccccc1C(=O)NNC(=O)Cc1cccc(O)c1` [compound 30] gave a melting point of 197 to 198 °C. `O=C(Cc1cccc(O)c1)NNC(=O)c1ccc(OC(F)(F)F)cc1` [compound 16] showed a melting point of 189 to 190 °C. Work on `COc1cc(Cl)c(C(=O)NNC(=O)Cc2cccc(O)c2)cc1OC` [compound 9] yielded a melting point of 174 to 175 °C. For `O=C(Cc1cccc(O)c1)NNC(=O)c1ccc(OCc2ccccc2)cc1` [compound 2], the melting point was 199 to 200 °C. Work on `O=C(Cc1cccc(O)c1)NNC(=O)c1ccc(OCc2ccccc2)cc1Cl` [compound 7] yielded a melting point of 162 to 164 °C. `COc1ccc(C(=O)NNC(=O)Cc2cccc(O)c2)cc1` [compound 36] gave a melting point of 158 to 159 °C.
